# Measured values taken from patent US20040248887A1, “Inhibitors of cathepsin S” (IRM LLC, priority 2003, published 2004).
# Biological target: Cathepsin S (Homo sapiens, UniProt P25774)
# Assay: Cathepsin S inhibition, fluorogenic peptide substrate kinetic assay
# Assay type: biochemical
# Conditions: Table II; Cathepsin S inhibition constant, pH5.5; read-out: Ki Cat. S
# How it was run: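 Reactions were started with 50 μM (final) acetyl-His-Pro-Val-Lys-aminocarbamoylcoumarin, and hydrolysis was followed by fluorescence (ex 380/em 450 nm). Apparent inhibition constants from enzyme progress curves were converted to Ki for competitive inhibitors using substrate concentration and Km.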
# Cathepsin S, sequence (P25774 115-331, species assumed): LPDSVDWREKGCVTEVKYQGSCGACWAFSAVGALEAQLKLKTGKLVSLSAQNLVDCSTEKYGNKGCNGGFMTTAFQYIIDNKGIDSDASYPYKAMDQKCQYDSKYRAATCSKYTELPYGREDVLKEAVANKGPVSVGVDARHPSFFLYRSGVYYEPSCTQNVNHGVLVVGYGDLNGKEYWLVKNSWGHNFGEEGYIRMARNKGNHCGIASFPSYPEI
row,Compound,Ki [nM]
1,"COc1cccc(S(=O)(=O)N[C@@H](CC2CCCCC2)C(=O)NCCN2CCc3cc(F)ccc32)c1 [Compound 245, (S)-3-Cyclohexyl-N-[2-(5-fluoro-2,3-dihydro-indol-1-yl)-ethyl]-2-(3-methoxy-benzenesulfonylamino)-propionamide]",< 1000
2,"Cc1cccc(C(=O)NC(C(=O)NCCN2CCc3cc(F)ccc32)c2ccc(Cl)cc2Cl)c1 (racemic) [Compound 213, (R,S)-N-((2-(5-fluoroindolin-1-yl)ethylcarbamoyl)(2,4-dichlorophenyl)methyl)-3-methylbenzamide]",< 1000
3,"Cc1cccc(C(=O)N[C@H](C(=O)NCCN2CCc3cc(F)ccc32)C2CCCCC2)c1 [Compound 193, N-((S)-(2-(5-fluoroindolin-1-yl)ethylcarbamoyl)(cyclohexyl)methyl)-3-methylbenzamide]",< 1000
4,"COc1cccc(C(=O)N[C@@H](CCC2CCCCC2)C(=O)N[C@@H](CCCCNC(=O)OCc2ccccc2)CN2CCc3cc(F)ccc32)c1 [Compound 55, (S,S)-[5-[4-Cyclohexyl-2-(3-methoxy-benzoylamino)-butyrylamino]-6-(5-fluoro-2,3-dihydro-indol-1-yl)-hexyl]-carbamic acid benzyl ester]",< 1000
5,COc1ccc(NCC(C)NC(=O)C(CCC2CCCCC2)NC(=O)c2cc3ccccc3[nH]2)cc1 (mixture of isomers) [Compound 24],< 1000
6,"O=C(N[C@@H](CC1CC1)C(=O)NCCN1CCc2cc(F)ccc21)c1ccc(-c2cccc(C(F)(F)F)c2)o1 [Compound 194, N-((S)-1-(2-(5-fluoroindolin-1-yl)ethylcarbamoyl)-2-cyclopropylethyl)-5-(3-(trifluoromethyl)phenyl)furan-2-carboxamide]",< 1000
7,"C[C@@H](CNc1ccc(OC(F)(F)F)cc1)NC(=O)[C@H](CC(C)(C)C)NC(=O)C1CCOCC1 [Compound 269, Tetrahydropyran-4-carboxylic acid {3,3-dimethyl-1-(S)-[1-(S)-methyl-2-(4-trifluoromethoxy-phenylamino)-ethylcarbamoyl]-butyl}-amide]",< 1000
8,"Cc1cccc(S(=O)(=O)N[C@@H](CC(C)(C)C)C(=O)N[C@@H](CC(=O)OC(C)(C)C)CN2CCc3cc(F)ccc32)c1 [Compound 252, (S,S)-3-[4,4-Dimethyl-2-(toluene-3-sulfonylamino)-pentanoylamino]-4-(5-fluoro-2,3-dihydro-indol-1-yl)-butyric acid tert-butyl ester]",< 1000
9,"O=C(Nc1ccc(-c2ccccc2)s1)N[C@@H](CC1CCCCC1)C(=O)NCCN1CCc2cc(F)ccc21 [Compound 219, (S)-3-Cyclohexyl-N-[2-(5-fluoro-2,3-dihydro-indol-1-yl)-ethyl]-2-[3-(5-phenyl-thiophen-2-yl)-ureido]-propionamide]",< 10000
10,"C[C@@H](CNc1ccc(S(N)(=O)=O)cc1)NC(=O)[C@H](CC1CCCCC1)NC(=O)c1ccc(-c2cccc(F)c2)o1 [Compound 138, 5-(3-Fluoro-phenyl)-furan-2-carboxylic acid {2-cyclohexyl-1-(S)-[1-(S)-methyl-2-(4-sulfamoyl-phenylamino)-ethylcarbamoyl]-ethyl}-amide]",< 1000
11,"COc1cccc(C(=O)N[C@@H](CC(C)(C)C)C(=O)N[C@@H](COCc2ccccc2)CN2CCc3cc(F)ccc32)c1 [Compound 155, N-{1-(S)-[1-(R)-Benzyloxymethyl-2-(5-fluoro-2,3-dihydro-indol-1-yl)-ethylcarbamoyl]-3,3-dimethyl-butyl}-3-methoxy-benzamide]",< 100
12,"C[C@@H](CNc1cccc(OC(F)(F)F)c1)NC(=O)[C@H](CC1CCCCC1)NC(=O)c1ccc(-c2cccc(F)c2)o1 [Compound 111, 5-(3-Fluoro-phenyl)-furan-2-carboxylic acid {2-cyclohexyl-1-(S)-[1-(S)-methyl-2-(3-trifluoromethoxy-phenylamino)-ethylcarbamoyl]-ethyl}-amide]",< 100

# The remaining lines, values ahead:
row,Ki [nM],Compound
1,< 100,"C[C@@H](CNc1ccc(OC(F)(F)F)cc1)NC(=O)[C@H](CC1CCCCC1)NC(=O)C1CCOCC1 [Compound 135, Tetrahydropyran-4-carboxylic acid {2-cyclohexyl-1-(S)-[1-(S)-methyl-2-(4-trifluoromethoxy-phenylamino)-ethylcarbamoyl]-ethyl}-amide]"
2,< 100,"Cc1cccc(C(=O)N[C@@H](CC(C)(C)C)C(=O)NCCN2CCc3cc(F)ccc32)c1 [Compound 203, N-((S)-1-(2-(5-fluoroindolin-1-yl)ethylcarbamoyl)-3,3-dimethylbutyl)-3-methylbenzamide]"
3,< 100,"COc1cccc(C(=O)N[C@@H](CC(C)(C)C)C(=O)N[C@@H](CC(=O)OC(C)(C)C)CN2CCc3cc(F)ccc32)c1 [Compound 160, 4-(5-Fluoro-2,3-dihydro-indol-1-yl)-3-(S)-[2-(S)-(3-methoxy-benzoylamino)-4,4-dimethyl-pentanoylamino]-butyric acid tert-butyl ester]"
4,< 100,"C[C@@H](CN1CCc2cc(F)ccc21)NC(=O)[C@H](CC(C)(C)C)NC(=O)C1CC1 [Compound 177, Cyclopropanecarboxylic acid {1-(S)-[2-(5-fluoro-2,3-dihydro-indol-1-yl)-1-(S)-methyl-ethylcarbamoyl]-3,3-dimethyl-butyl}-amide]"
5,< 100,"COc1cccc(C(=O)N[C@@H](Cc2ccc(F)cc2)C(=O)N[C@@H](COCc2ccccc2)CN2CCc3cc(F)ccc32)c1 [Compound 37, N-[1-(S)-[1-(R)-Benzyloxymethyl-2-(5-fluoro-2,3-dihydro-indol-1-yl)-ethylcarbamoyl]-2-(4-fluoro-phenyl)-ethyl]-3-methoxy-benzamide]"
6,< 100,"C[C@@H](CNc1cccc(C(=O)N(C)C)c1)NC(=O)[C@H](CC1CCCCC1)NC(=O)c1ccc(-c2cccc(F)c2)o1 [Compound 120, 5-(3-Fluoro-phenyl)-furan-2-carboxylic acid {2-cyclohexyl-1-(S)-[2-(3-dimethylcarbamoyl-phenylamino)-1-(S)-methyl-ethylcarbamoyl]-ethyl}-amide]"
7,< 100,"Cc1noc(C)c1S(=O)(=O)N[C@@H](CC1CCCCC1)C(=O)N[C@@H](C)CN1CCc2cc(F)ccc21 [Compound 263, (S,S)-3-Cyclohexyl-2-(3,5-dimethyl-isoxazole-4-sulfonylamino)-N-[2-(5-fluoro-2,3-dihydro-indol-1-yl)-1-methyl-ethyl]-propionamide]"
8,< 100,"C[C@@H](CN1CC(C)(C)c2cc(F)ccc21)NC(=O)[C@H](CC1CCCCC1)NC(=O)[C@H]1CCCO1 [Compound 273, Tetrahydrofuran-2-(R)-carboxylic acid {2-cyclohexyl-1-(S)-[2-(5-fluoro-3,3-dimethyl-2,3-dihydro-indol-1-yl)-1-(S)-methyl-ethylcarbamoyl]-ethyl}-amide]"
9,< 100,"C[C@@H](CNc1ccc(OC(F)(F)F)cc1)NC(=O)[C@H](CC1CCCCC1)NC(=O)[C@H]1CCCO1 [Compound 30, Tetrahydrofuran-2-(R)-carboxylic acid {2-cyclohexyl-1-(S)-[1-(S)-methyl-2-(4-trifluoromethoxy-phenylamino)-ethylcarbamoyl]-ethyl}-amide]"
10,< 100,"CC(C)(C)C[C@H](NC(=O)OC(C)(C)C)C(=O)N[C@@H](CCS(C)(=O)=O)CN1CCc2cc(F)ccc21 [Compound 157, {1-(S)-[1-(S)-(5-Fluoro-2,3-dihydro-indol-1-ylmethyl)-3-methanesulfonyl-propylcarbamoyl]-3,3-dimethyl-butyl}-carbamic acid tert-butyl ester]"
11,< 100,"O=C(N[C@@H](CC1CCCCC1)C(=O)NCCN1CCc2cc(F)ccc21)c1ccc(-c2ccccc2)o1 [Compound 75, 5-Phenyl-furan-2-carboxylic acid (S)-{2-cyclohexyl-1-[2-(5-fluoro-2,3-dihydro-indol-1-yl)-ethylcarbamoyl]-ethyl}-amide]"
12,< 100,"Cc1nc(C)c(S(=O)(=O)N[C@@H](CC2CCCCC2)C(=O)N[C@@H](C)CN2CCc3cc(F)ccc32)s1 [Compound 210, (S,S)-3-Cyclohexyl-2-(2,4-dimethyl-thiazole-5-sulfonylamino)-N-[2-(5-fluoro-2,3-dihydro-indol-1-yl)-1-methyl-ethyl]-propionamide]"
13,< 100,"C[C@@H](CN1c2ccc(F)cc2CC1(C)C)NC(=O)[C@H](CC1CCCCC1)NC(=O)C1CCOC1 (stereo partly drawn) [Compound 140, Tetrahydrofuran-3-carboxylic acid {2-cyclohexyl-1-(S)-[2-(5-fluoro-2,2-dimethyl-2,3-dihydro-indol-1-yl)-1-(S)-methyl-ethylcarbamoyl]-ethyl}-amide]"
14,< 100,"C[C@@H](CNc1ccc(C(=O)N(C)C)cc1)NC(=O)[C@H](CC1CCCCC1)NC(=O)c1ccc(-c2cccc(F)c2)o1 [Compound 122, 5-(3-Fluoro-phenyl)-furan-2-carboxylic acid {2-cyclohexyl-1-(S)-[2-(4-dimethylcarbamoyl-phenylamino)-1-(S)-methyl-ethylcarbamoyl]-ethyl}-amide]"
15,< 100,"C[C@@H](CNc1ccc(OC(F)(F)F)cc1)NC(=O)[C@H](CC1CCCC1)NC(=O)O[C@H]1CCOC1 [Compound 192, (S,S)-{2-Cyclopentyl-1-[1-methyl-2-(4-trifluoromethoxy-phenylamino)-ethylcarbamoyl]-ethyl}-carbamic acid tetrahydrofuran-3-(S)-yl ester]"
16,< 100,"C[C@@H](CNc1ccc(OC(F)(F)F)cc1)NC(=O)[C@H](CC1CCCCC1)NC(=O)c1ccc(-c2ccc[n+]([O-])c2)o1 [Compound 144, 5-(1-Oxy-pyridin-3-yl)-furan-2-carboxylic acid {2-cyclohexyl-1-(S)-[1-(S)-methyl-2-(4-trifluoromethoxy-phenylamino)-ethylcarbamoyl]-ethyl}-amide]"
17,< 100,"CC(=O)Nc1nc(C)c(S(=O)(=O)N[C@@H](CC2CCCCC2)C(=O)NCCN2CCc3cc(F)ccc32)s1 [Compound 257, (S)-2-(2-Acetylamino-4-methyl-thiazole-5-sulfonylamino)-3-cyclohexyl-N-[2-(5-fluoro-2,3-dihydro-indol-1-yl)-ethyl]-propionamide]"
